Six compounds from EP4640207A1, “AQUEOUS COMPOSITION AND EXTERNAL PREPARATION FOR SKIN” (Resonac Corporation, priority 2022, dated 2024) can be followed below.

One data set has as its system TRPV4 gene. The data set can be described thus: cells. Type of data set: cell-based, human. Conditions: for fold induction at 10 µM: Homo sapiens, NHEK, light or radiation study, read-out: Expression level of TRPV4 gene (relative value); for Expression level of TRPV4 gene (relative value): nhek cells, 10 µM. On the procedure:
• (Confirmation of activity of aqueous composition containing δ-TPG and HD: expression of TRPV4 gene) • Normal human epidermal keratinocytes (NHEK, manufactured by KURABO INDUSTRIES LTD.) were seeded in a plastic petri dish at a seeding density of 10,000 cells/cm^2, and cultured for 24 hours in a normal human epidermal keratinocyte serum-free culture medium (manufactured by KURABO INDUSTRIES LTD.).
8.94 g of water, 1.0 g of HD, and 0.06 g of δ-TPG were mixed and stirred to obtain an aqueous composition. The above-described aqueous composition was added to a culture solution in which the above-described NHEK cells had been cultured for 24 hours, such that the final concentration of δ-TPG was 10 µM.
After adding the δ-TPG, the above-described culture solution was further cultured for 48 hours. Thereafter, the culture solution was irradiated with UVB at 60 mJ/cm^2 using a UVB irradiation device of UVP, LLC. Thereafter, a fresh normal human epidermal keratinocyte growth medium was added to the above-described culture solution, and the culture was further carried out for 24 hours. In this manner, evaluation cells were obtained.
Total RNA was extracted from the evaluation cells obtained above, and cDNA was synthesized. Subsequently, quantitative real-time PCR was carried out using the above-described cDNA as a template, and the expression level of the TRPV4 gene in the NHEK cells was quantified. The expression level of glyceraldehyde 3-phosphate dehydrogenase (GAPDH) was quantified as an internal standard gene. […] The expression level of the TRPV4 gene was standardized with reference to the expression level of the GAPDH gene in the NHEK cells. As a primer for amplifying the GAPDH gene, a primer GAPDH (ID: HA067812) manufactured by Takara Bio Inc. was used. As a primer for amplifying the TRPV4 gene, a primer TRPV4 (ID: HA186338) manufactured by Takara Bio Inc. was used.
The same operation as described above was carried out using, instead of δ-TPG, D-α-tocopheryl glucoside (hereinafter, may be abbreviated as "α-TPG"), tocopherol acetate (FUJIFILM Wako Pure Chemical Corporation; hereinafter, may be abbreviated as "TPA"), δ-tocopherol (Sigma-Aldrich Co., LLC; hereinafter, may be abbreviated as "δ-TP"), or α-tocopherol (SEIKO-EPSON CORPORATION; hereinafter, may be abbreviated as "α-TP"), thereby obtaining evaluation cells. The expression level of the TRPV4 gene was measured for these evaluation cells by the same operation as described above.
The expression level of the TRPV4 gene was determined as a relative value when the expression level of the TRPV4 gene in reference cells was set to 1. The reference cells were prepared by culturing the NHEK cells without adding a test compound to the cell culture solution and without irradiating the cells with UVB. HD was added to the cell culture solution of the reference cells so that the HD concentration in the cell culture solution was the same as that in the culture solution when δ-TPG was added and cultured. The culture conditions for the NHEK cells were the same as those when δ-TPG was added, except that δ-TPG was not added and UVB irradiation was not carried out.
Comparative cells were prepared by culturing the NHEK cells by not adding the test compound to the cell culture solution and irradiating the cells with UVB. […] The expression level of the TRPV4 gene in the comparative cells was determined by the same method as described above.

Another data set relates to claudin 1 (CLDN1) gene. Description: Expression of TJ-related gene CLDN1 in UVB-irradiated NHEK cells, quantitative real-time PCR. The data set is classed as cell-based, human. Conditions: for fold induction at 10 µM: Homo sapiens, light or radiation study, read-out: Expression level of gene (relative value) CLDN1 gene. On the procedure: (§1) • (Confirmation of activity of aqueous composition with δ-TPG and HD: effect of promoting expression of TJ-related gene) • Normal human epidermal keratinocytes (NHEK, manufactured by KURABO INDUSTRIES LTD.) were subjected to the same operation as in Experimental Example 2 to obtain evaluation cells.
(§2) Total RNA was extracted from the evaluation cells thus obtained, and cDNA was synthesized. Subsequently, quantitative real-time PCR was carried out using the above-described cDNA as a template, and the expression levels of the claudin 1 (CLDN1) gene and occludin (OCL) gene in the NHEK cells were quantified. In addition, the expression level of GAPDH was quantified as an internal standard gene. The expression levels of the CLDN1 gene and OCL gene were standardized with reference to the expression level of the GAPDH gene in the NHEK cells. As a primer for amplifying the GAPDH gene, a primer GAPDH (ID: HA067812) manufactured by Takara Bio Inc. was used. As a primer for amplifying the CLDN1 gene, a primer CLDN1 (ID: HA103348) manufactured by Takara Bio Inc. was used. As a primer for amplifying the OCL gene, a primer OCL (ID: HA036753) manufactured by Takara Bio Inc. was used.
(§3) The same operation as described above was performed using, instead of δ-TPG, α-TPG, TPA, δ-TP, or α-TP to obtain evaluation cells. The expression levels of the CLDN1 gene and OCL gene were measured for these evaluation cells by the same operation as described above.
(§4) The expression level of each gene was determined as a relative value when the expression level of each gene in reference cells was set to 1. The reference cells were prepared by the same operation as the reference cells in Experimental Example 2.
(§5) The expression levels of the CLDN1 gene and OCL gene in comparative cells were determined by the same method as described above. The comparative cells were prepared by the same operation as the comparative cells in Experimental Example 2.

For a further data set, the system named is occludin (OCL) gene. The data set can be described thus: Expression of TJ-related gene OCL in UVB-irradiated NHEK cells, quantitative real-time PCR. Type of data set: cell-based, human. Conditions: for fold induction at 10 µM: Homo sapiens, light or radiation study, read-out: Expression level of gene (relative value) OCL gene. Here is the method: as §1, §2, §3, §4, §5
A general note: Quantitative PCR measures a nucleic acid by following its amplification.

Data set [1] deals with skin model (model "EP1-200"). Description: TJ-forming ability evaluation test: transepidermal water loss (TEWL) of skin model. The data set is classed as cell-based. Conditions: cultured 24 hours. On the procedure:
A skin model (model "EP1-200", manufactured by KURABO INDUSTRIES LTD.) was pre-cultured for 1 hour under the conditions of 37°C and 5% CO2. Subsequently, δ-TPG dissolved in a 0.5% by mass HD aqueous solution at a concentration of 0.2% by mass was added to the surface of the skin model, and the skin model was further cultured for 24 hours. Subsequently, δ-TPG was removed, the sample was washed three times with a phosphate buffer solution, and the transepidermal water loss (TEWL) was measured. A cyclone water vaporizer (manufactured by ASCH JAPAN Co.,Ltd.) was used for measuring the TEWL.
TEWL was measured by performing the same operation as described above using TPA instead of δ-TPG.
For comparison, a 0.5% by mass HD aqueous solution not containing δ-TPG instead of δ-TPG dissolved in a 0.5% by mass HD aqueous solution was used, and the same operation as described above was performed to measure the TEWL.
The same operation as described above was performed using δ-TP dissolved in 1% by mass of HD at a concentration of 0.2% by mass, instead of δ-TPG dissolved in 0.5% by mass of HD, and the TEWL was measured.
It was confirmed that TEWL was suppressed in the group in which δ-TPG was added. […]

Data set [2] is described as follows: Confirmation of solubility of tocopheryl glucoside (visual observation of vials). Conditions: aqueous composition not containing HD.
Procedure: The solubility of the D-δ-tocopheryl glucoside (hereinafter, may be abbreviated as "δ-TPG") was examined.
9.9 g of each of the mixtures was placed in individual vials, 0.01 g of solid δ-TPG was added to each vial, and the mixture was stirred at room temperature. After stirring for 1 hour, the state of each vial was observed.
[3] abbreviates: NHEK cells, final concentration 10 µM, UVB 60 mJ/cm^2 performed, relative to reference cells (HD, no UVB) = 1, standardized to GAPDH.
Setting [4] is: 0.2% by mass in 0.5% by mass HD aqueous solution on skin model surface.

Read-outs that look alike come from different tables or passages of the source.

Regarding `CC(=O)Oc1c(C)c(C)c2c(c1C)CCC(C)(CCCC(C)CCCC(C)CCCC(C)C)O2` (stereo not shown) [TPA/HD, tocopherol acetate], the fold induction at 10 µM with TRPV4 gene amounted to 0.29; in the data set on claudin 1 (CLDN1) gene (setting [3]), 0.77; in the data set with occludin (OCL) gene (setting [3]), 1.12. Also, in data set [1] (setting [4]), the TEWL is 12.4 ± 0.8 g/(h·m^2).
Regarding `Cc1c(C)c2c(c(C)c1O)CCC(C)(CCCC(C)CCCC(C)CCCC(C)C)O2` (stereo not drawn) [α-TP/HD, α-tocopherol], the fold induction at 10 µM came out at 0.43 in the data set with TRPV4 gene, 1 in the data set on claudin 1 (CLDN1) gene (NHEK) and 2.48 in the data set on occludin (OCL) gene (NHEK).
As for `Cc1cc(OC2OC(CO)C(O)C(O)C2O)cc2c1OC(C)(CCCC(C)CCCC(C)CCCC(C)C)CC2` [δ-TPG, D-δ-tocopheryl glucoside], the fold induction at 10 µM stood at 0.83 with TRPV4 gene, 1.28 in the data set on claudin 1 (CLDN1) gene (setting [3]) and 3.45 in the data set on occludin (OCL) gene (setting [3]). Moreover, in data set [1] (setting [4]), the TEWL is given as 7.9 ± 1.7 g/(h·m^2).
Regarding D-α-tocopheryl glucoside [α-TPG/HD], the “Expression level of TRPV4 gene (relative value)” value in the data set with TRPV4 gene turned out to be 0.77. In the data set on claudin 1 (CLDN1) gene (setting [3]), the “Expression level of gene (relative value) CLDN1 gene” value stood at 1.24. The “Expression level of gene (relative value) OCL gene” value with occludin (OCL) gene (setting [3]) is given as 3.24.
As to tocopheryl glucoside, the “solubility of tocopheryl glucoside” value in data set [2] is reported as “not sufficiently dissolved”.
Turning to δ-tocopherol [δ-TP/HD], in the data set on TRPV4 gene, the “Expression level of TRPV4 gene (relative value)” value is on record as 0.54. Also, the “Expression level of gene (relative value) CLDN1 gene” value in the data set with claudin 1 (CLDN1) gene (nhek cells, 10 µM) was found to be 1.00. Further, the “Expression level of gene (relative value) OCL gene” value in the data set on occludin (OCL) gene (nhek cells, 10 µM) is 1.91. Also, the TEWL in data set [1] (0.2% by mass in 1% by mass of HD on skin model surface) is 8.2 ± 1.2 g/(h·m^2).
